Like-named read-outs stand apart in the source and are kept apart here.
Target: T1, hmGlu5 (Homo sapiens, UniProt P41594)
T1 construct: expressed in transfected cells; host or cells: HEK 293A
Assay: mGlu5 Ca2+ flux assay in HEK 293A cells (negative allosteric modulation of glutamate EC80 response)
Format: cell-based
Settings: for remaining activity at 30 µM: HEK293-A, read-out: hmGlu5 NAM Emin (%)
Method: HEK 293A cells stably expressing either rat or human mGlu5 were plated in black-walled, clear-bottomed, poly-D-lysine coated 384-well plates in 20 μL of assay medium (DMEM containing 10% dialyzed FBS, 20 mM HEPES, 100 units/mL penicillin/streptomycin plus 250 ng/mL Fungizone, and 1 mM sodium pyruvate) at a density of 20K cells/well. The cells were grown overnight at 37° C. in the presence of 5% CO2. The next day, medium was removed and the cells incubated with 20 μL of 2.3 μM Fluo-4, AM prepared as a 2.3 mM stock in DMSO and mixed in a 1:1 ratio with 10% (w/v) pluronic acid F-127 and diluted in assay buffer (Hank's balanced salt solution, 20 mM HEPES, and 2.5 mM probenecid) for 45 minutes at 37° C. Dye was removed, 20 μL of assay buffer was added, and the plate was incubated for 5 minutes at room temperature.
Ca^2+ flux was measured using the Functional Drug Screening System (FDSS7000, Hamamatsu, Japan). After establishment of a fluorescence baseline for about 3 seconds, the compounds of the present invention were added to the cells, and the response in cells was measured. 2.3 minutes later an EC20 concentration of the mGlu5 receptor agonist glutamate was added to the cells, and the response of the cells was measured for 1.9 minutes; an EC80 concentration of agonist was added and readings taken for an additional 1.7 minutes. All test compounds were dissolved and diluted to a concentration of 10 mM in 100% DMSO. Compounds were then serially diluted 1:3 in DMSO into 10 point concentration response curves, transferred to daughter plates, and further diluted into assay buffer to a 2× stock. Calcium fluorescence measures were recorded as fold over basal fluorescence; raw data was then normalized to the maximal response to glutamate. Antagonism of the agonist response of the mGlu5 receptor in the present invention was observed as a decrease in response to nearly maximal concentrations of glutamate in the presence of compound compared to the response to glutamate in the absence of compound.
The raw data file containing all time points was used as the data source in the analysis template. This was saved by the FDSS as a tab-delimited text file. Data were normalized using a static ratio function (F/F0) for each measurement of the total 360 values per well divided by each well's initial value. Data were then reduced to peak amplitudes (Max−Initial Min) using a time range that starts approximately 3 seconds prior to the glutamate EC20/EC80 addition and continues for approximately 90-120 seconds. This is sufficient time to capture the peak amplitude of the cellular calcium response. Individual amplitudes were expressed as % EMax by multiplying each amplitude by 100 and then dividing the product by the mean of the amplitudes derived from the glutamate ECMax-treated wells. IC50 values for test compounds were generated by fitting the normalized values versus the log of the test compound concentration (in mol/L) using a 4 parameter logistic equation where none of the parameters were fixed. Each of the three values collected at each concentration of test compound were weighted evenly.
For NAMs with a CRC that plateaus above 10% Glu Max, the IC50 values are reported, the compound is designated a “partial NAM” and the % Glu Max is reported. […] Compounds without measurable activity are designated as “>30,000 nM” since the top concentration of compound tested in the assay is 30 μM. […]

[1] = HEK 293A cells, Ca2+ flux, glutamate EC80, >10,000 = decrease without plateau, read-out: hmGlu5 NAM IC50

T1 sequence (P41594 21-1212): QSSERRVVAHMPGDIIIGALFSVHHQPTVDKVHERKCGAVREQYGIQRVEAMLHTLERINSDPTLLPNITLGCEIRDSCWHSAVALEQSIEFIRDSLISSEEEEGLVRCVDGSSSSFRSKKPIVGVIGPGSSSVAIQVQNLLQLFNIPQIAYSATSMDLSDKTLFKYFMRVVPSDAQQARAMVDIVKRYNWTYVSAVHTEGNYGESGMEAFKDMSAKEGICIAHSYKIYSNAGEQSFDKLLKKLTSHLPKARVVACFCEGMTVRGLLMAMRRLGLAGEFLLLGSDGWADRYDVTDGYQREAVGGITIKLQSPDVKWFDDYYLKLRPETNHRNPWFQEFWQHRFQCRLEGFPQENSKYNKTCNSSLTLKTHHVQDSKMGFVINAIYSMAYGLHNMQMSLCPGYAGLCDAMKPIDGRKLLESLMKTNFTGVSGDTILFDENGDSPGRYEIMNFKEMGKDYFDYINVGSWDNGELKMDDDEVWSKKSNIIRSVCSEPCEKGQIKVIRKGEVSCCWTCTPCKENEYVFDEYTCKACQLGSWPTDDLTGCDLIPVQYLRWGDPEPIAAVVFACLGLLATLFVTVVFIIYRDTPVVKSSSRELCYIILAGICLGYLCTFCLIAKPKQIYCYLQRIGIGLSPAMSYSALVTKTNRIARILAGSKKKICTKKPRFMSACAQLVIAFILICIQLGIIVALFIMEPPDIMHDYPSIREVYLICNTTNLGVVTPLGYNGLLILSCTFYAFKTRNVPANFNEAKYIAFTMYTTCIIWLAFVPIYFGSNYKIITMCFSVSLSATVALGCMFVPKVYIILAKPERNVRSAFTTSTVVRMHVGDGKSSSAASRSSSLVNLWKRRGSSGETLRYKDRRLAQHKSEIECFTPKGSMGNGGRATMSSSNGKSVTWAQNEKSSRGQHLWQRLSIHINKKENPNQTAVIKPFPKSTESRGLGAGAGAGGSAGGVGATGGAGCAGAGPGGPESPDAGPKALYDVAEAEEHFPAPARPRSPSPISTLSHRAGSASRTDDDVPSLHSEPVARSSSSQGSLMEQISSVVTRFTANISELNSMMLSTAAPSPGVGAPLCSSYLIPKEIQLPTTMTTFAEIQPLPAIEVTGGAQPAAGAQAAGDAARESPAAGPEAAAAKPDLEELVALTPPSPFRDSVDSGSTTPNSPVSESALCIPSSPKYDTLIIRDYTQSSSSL

| SMILES | remaining activity at 30 µM (% Glu max at 30 μM) | IC50 [1] | IC50 | remaining activity at 30 µM |
| --- | --- | --- | --- | --- |
| Cc1nc(-c2noc(-c3ccc(F)cc3)n2)cc(-c2cncc(F)c2)c1F [Compound 48, 3-(5,5′-difluoro-6′-methyl-[3,4′-bipyridin]-2′-yl)-5-(4-fluorophenyl)-1,2,4-oxadiazole] | 3% | 0.081 µM |  |  |
| Cc1nc(-c2noc(-c3ccc(F)cn3)n2)cc(-c2ccc(Cl)nc2)c1F [Compound 34, 3-(6-chloro-5′-fluoro-6′-methyl-[3,4′-bipyridin]-2′-yl)-5-(5-fluoropyridin-2-yl)-1,2,4-oxadiazole] | 8% | 0.577 µM |  |  |
| COc1c(-c2cncc(F)c2)cc(-c2noc(-c3ccc(F)cn3)n2)nc1C [Compound 11, 3-(5-fluoro-5′-methoxy-6′-methyl-[3,4′-bipyridin]-2′-yl)-5-(5-fluoropyridin-2-yl)-1,2,4-oxadiazole] | 2% | 0.452 µM |  |  |
| Cc1nc(-c2noc(-c3ccc(F)cc3F)n2)cc(-c2cncc(F)c2)c1F [Compound 49, 3-(5,5′-difluoro-6′-methyl-[3,4′-bipyridin]-2′-yl)-5-(2,4-difluorophenyl)-1,2,4-oxadiazole] | 3% | 0.624 µM |  |  |
| [2H]C([2H])([2H])c1cc(-c2cncc(F)c2)cc(-c2nnc(-c3ccc(F)cn3)o2)n1 [Compound 85, 2-(5-fluoro-6′-(methyl-d3)-[3,4′-bipyridin]-2′-yl)-5-(5-fluoropyridin-2-yl)-1,3,4-oxadiazole] | 1% | 0.45 µM |  |  |
| Cc1cccc(-c2nc(-c3cc(-c4cnccc4C)c(F)c(C)n3)no2)c1 [Compound 28, 3-(5′-fluoro-4,6′-dimethyl-[3,4′-bipyridin]-2′-yl)-5-(m-tolyl)-1,2,4-oxadiazole] | 2% | 0.069 µM |  |  |
| Cc1ccncc1-c1cc(-c2nc(-c3ccc(F)cn3)no2)ncc1F [Compound 4, 5-(5′-fluoro-4-methyl-[3,4′-bipyridin]-2′-yl)-3-(5-fluoropyridin-2-yl)-1,2,4-oxadiazole] | 1% | 0.166 µM |  |  |
| Cc1nc(-c2noc(C3CCCCC3)n2)cc(-c2cncc(F)c2)c1F [Compound 36, 5-cyclohexyl-3-(5,5′-difluoro-6′-methyl-[3,4′-bipyridin]-2′-yl)-1,2,4-oxadiazole] | 51% | > 10 µM |  |  |
| Cc1ccncc1-c1cc(-c2noc(-c3ccc(F)cn3)n2)nc(C(F)F)c1 [Compound 60, 3-(6′-(difluoromethyl)-4-methyl-[3,4′-bipyridin]-2′-yl)-5-(5-fluoropyridin-2-yl)-1,2,4-oxadiazole] | 4% | 0.187 µM |  |  |
| Cc1cc(O[C@@H]2CCOC2)cc(-c2noc(-c3ccccn3)n2)n1 [Compound 113, (R)-3-(6-methyl-4-((tetrahydrofuran-3-yl)oxy)pyridin-2-yl)-5-(pyridin-2-yl)-1,2,4-oxadiazole] | 2% | 0.046 µM |  |  |
| Cc1nc(-c2nnc(-c3ccc(F)cn3)o2)cc(-c2cnccc2Cl)c1F [Compound 77, 2-(4-chloro-5′-fluoro-6′-methyl-[3,4′-bipyridin]-2′-yl)-5-(5-fluoropyridin-2-yl)-1,3,4-oxadiazole] | 3% | 0.138 µM |  |  |
| Cc1nc(-c2noc(-c3ccc(F)cn3)n2)cc(-c2cc(F)cnc2Cl)c1F [Compound 32, 3-(2-chloro-5,5′-difluoro-6′-methyl-[3,4′-bipyridin]-2′-yl)-5-(5-fluoropyridin-2-yl)-1,2,4-oxadiazole] | 3% | 0.359 µM |  |  |
| Cc1csc(-c2noc(-c3cc(-c4cncc(F)c4)c(F)c(C)n3)n2)n1 [Compound 104, 5-(5,5′-difluoro-6′-methyl-[3,4′-bipyridin]-2′-yl)-3-(4-methylthiazol-2-yl)-1,2,4-oxadiazole] | 1% | 0.122 µM |  |  |
| Cc1nc(-c2noc(-c3ccc(F)cn3)n2)cc(-c2cc(F)cc(F)c2)c1F [Compound 67, 3-(4-(3,5-difluorophenyl)-5-fluoro-6-methylpyridin-2-yl)-5-(5-fluoropyridin-2-yl)-1,2,4-oxadiazole] | 3% | 0.161 µM |  |  |
| Cc1nc(-c2noc(-c3ccc(F)cn3)n2)cc(-c2cncc(C(C)(C)O)c2)c1F [Compound 62, 2-(3′-fluoro-6′-(5-(5-fluoropyridin-2-yl)-1,2,4-oxadiazol-3-yl)-2′-methyl-[3,4′-bipyridin]-5-yl)propan-2-ol] | 5% | 1.29 µM |  |  |
| COc1cncc(-c2cc(-c3noc(-c4ccc(F)cn4)n3)nc(C)c2F)c1 [Compound 30, 3-(5′-fluoro-5-methoxy-6′-methyl-[3,4′-bipyridin]-2′-yl)-5-(5-fluoropyridin-2-yl)-1,2,4-oxadiazole] | 3% | 0.493 µM |  |  |
| COc1ccnc(-c2nc(-c3cc(-c4cnccc4C)c(F)c(C)n3)no2)c1 [Compound 25, 3-(5′-fluoro-4,6′-dimethyl-[3,4′-bipyridin]-2′-yl)-5-(4-methoxypyridin-2-yl)-1,2,4-oxadiazole] | 12% | 3.38 µM |  |  |
| Cc1ccncc1-c1cc(-c2nc(-c3ccc(F)cn3)no2)nc(C)c1F [Compound 8, 5-(5′-fluoro-4,6′-dimethyl-[3,4′-bipyridin]-2′-yl)-3-(5-fluoropyridin-2-yl)-1,2,4-oxadiazole] | 2% | 0.124 µM |  |  |
| Cc1cc(O[C@@H]2CCOC2)cc(-c2noc(-c3nc(C)cs3)n2)n1 [Compound 106, (R)-3-(6-methyl-4-((tetrahydrofuran-3-yl)oxy)pyridin-2-yl)-5-(4-methylthiazol-2-yl)-1,2,4-oxadiazole] | 2% | 0.387 µM |  |  |
| Cc1ccncc1-c1cc(-c2noc(-c3ccc(Cl)cn3)n2)nc(C)c1F [Compound 26, 5-(5-chloropyridin-2-yl)-3-(5′-fluoro-4,6′-dimethyl-[3,4′-bipyridin]-2′-yl)-1,2,4-oxadiazole] | 2% | 0.575 µM |  |  |
| Cc1ccncc1-c1cc(-c2n[nH]c(-c3ccc(F)cn3)n2)nc(C)c1F [Compound 97, 3′-fluoro-6′-(5-(5-fluoropyridin-2-yl)-1H-1,2,4-triazol-3-yl)-2′,4-dimethyl-3,4′-bipyridine] | 2% | 0.183 µM |  |  |
| Cc1nc(-c2nc(-c3ccc(F)cc3)no2)cc(-c2cncc(F)c2)c1F [Compound 46, 5-(5,5′-difluoro-6′-methyl-[3,4′-bipyridin]-2′-yl)-3-(4-fluorophenyl)-1,2,4-oxadiazole] | 3% | 0.677 µM |  |  |
| Cc1nc(-c2nnc(-c3ccncc3)o2)cc(-c2cncc(F)c2)c1F [Compound 81, 2-(5,5′-difluoro-6′-methyl-[3,4′-bipyridin]-2′-yl)-5-(pyridin-4-yl)-1,3,4-oxadiazole] |  |  | > 10 µM | 55% |
| Cc1cc(O[C@@H]2CCOC2)cc(-c2noc(-c3ccc(F)cn3)n2)n1 [Compound 112, (R)-5-(5-fluoropyridin-2-yl)-3-(6-methyl-4-((tetrahydrofuran-3-yl)oxy)pyridin-2-yl)-1,2,4-oxadiazole] | 21% | > 10 µM |  |  |
| Cc1cc(-c2cncc(F)c2)cc(-c2noc(-c3nc(C)cs3)n2)n1 [Compound 72, 3-(5-fluoro-6′-methyl-[3,4′-bipyridin]-2′-yl)-5-(4-methylthiazol-2-yl)-1,2,4-oxadiazole] | 11% | 0.917 µM |  |  |
| Cc1cccc(-c2nc(-c3cc(-c4cnccc4C)c(F)c(C)n3)no2)n1 [Compound 22, 3-(5′-fluoro-4,6′-dimethyl-[3,4′-bipyridin]-2′-yl)-5-(6-methylpyridin-2-yl)-1,2,4-oxadiazole] | 3% | 1.09 µM |  |  |

From patent US20250026743A1, “HETEROARYL-LINKED ANALOGS AS MGLU5 NEGATIVE ALLOSTERIC MODULATORS AND METHODS OF MAKING AND USING THE SAME” (Vanderbilt University, priority 2021, published 2025)
